Percent viability and CHAT1 levels data for two compounds are collected here from US12053454B2, “Compositions for cryopreservation and methods of use thereof” (EVERGREEN BIOSCIENCES, priority 2017, dated 2024).

Assay [1] concerns primary mouse cortical neuron cells. In words: Viability after freeze/thaw in solutions comprising different necrostatins. To be noted: necrostatin 20 nM with other components of the soln unchanged; vs vehicle cryopreserved with 10% DMSO. Format: cell-based. The source says:
Several analogs of necrostatins were studied and found to work similarly in their cryoprotective effect after freeze/thaw.

Assay [2] concerns stem cells (motor neuron precursors). The assay is described as follows: Motor neuron identity (CHAT1) after freezing of stem cells. Format: cell-based. To be noted: frozen in solutions comprising 0.01 μM cyspA, or 20 nM Nec1, or 5 nM iMAC2; vs frozen in the absence of these compounds. The source says:
Cellular freeze/thaw cycle causes stem cells to lose their identity, as measured by the level of CHAT1 in motor neurons. […] As shown here (FIG. 3), each of cyspA, Nec1, and IMAC2 provided cryoprotection to stem cells upon freezing, maintaining cellular characteristics. Cryoprotectants in solution used to freeze the cells, maintained motor neuron identity, as measure by the level of CHAT1.

Consider `COc1ccc2c(c1)C1=NN(C(C)=O)C(c3ccc(F)cc3)C1CC2` (centres unmarked) [Nec3], for which the percent viability entry in assay [1] is “significantly enhanced percent viability”. `Cl.Cl.OC(CN1CCNCC1)Cn1c2ccc(Br)cc2c2cc(Br)ccc21` (centres unmarked) [iMAC2, 3,6-Dibromo-a-(1-piperazinylmethyl)-9H-carbazole-9-ethanol dihydrochloride]: in assay [2], the CHAT1 levels result was “maintained CHAT1 levels”.
